The text below walks through data of article PMC12491715 (Acta Pharmaceutica Sinica. B, 2025).

Where “and” joins values, the source holds several entries; their conditions need not be identical. Equal values may be shown once. Read-outs that look alike come from different tables or passages of the source.

In this assay the target is T1, BChE (Mus musculus, UniProt Q03311).
T1 construct: from tissue; host or cells: mouse serum (C57BL/6JRccHsd)
Briefly: Cholinesterase inhibition upon repeated dosing, serum BChE. In kind it is in vivo, C57BL/6JRccHsd mice. The conditions noted are these: for remaining activity at 1 mg/kg / remaining activity at 5 mg/kg: mouse, po. From the text:
The 12 mice used in this pilot study were 9–14 months old male wild-type C57BL/6JRccHsd mice bred in the Laboratory of Animal Genomics at the Faculty of Veterinary Medicine, University of Ljubljana, or purchased from Envigo RMS Holding Corp. Mice were conventionally bred in open polycarbonate cages (Tecniplast, Buguggiate, Italy) and provided with wood chip bedding (Lignocel®, Rettenmaier and Sons, Germany). Mice were kept under standard conditions, including a 12:12 dark–light cycle (LED, CCT 3000 k, with no more than 25 lux above the cage), a temperature range of 21–24 °C, and humidity between 50%–60%. They were fed irradiated rodent diet (Teklad global 16% protein rodent diet®, BN 2916, Envigo, Udine, Italy) and had access to drinkable tap water ad libitum. Due to the nature of this pilot study, the mice were housed individually. The experimental design was evaluated by the National Ethics Committee for Animal Experiments and approved by the Veterinary Administration of the Republic of Slovenia (document no. U34401-10/2021/8, with amendments U34401-10/2021/13 and U34401-10/2021/1).
Before the start of study, blood was drawn from the submandibular vein (facial vein) of the animals under isoflurane inhalation anesthesia (Isoflurin®, VetPharma, Spain) using a 5 mm lancet (Goldenrod Animal Sterile, MEDIpoint, Inc., NY, USA), collected in a microtube (Eppendorf, Safe-Lock tube, 0.5 mL, Eppendorf AG, Germany) and allowed to clot. After approximately 1 h, the blood was centrifuged at 6000 × g for 15 min at 4 °C to obtain the sera, which were stored at –80 °C until analysis.
Seven animals received the 1 mg/kg dose of compound 8, and five animals received the 5 mg/kg dose of compound 8. Compound 8 was prepared as a stock solution in 100% MeCN (5 and 10 mg/mL) and kept refrigerated for the duration of the study. The dosages were prepared as follows: based on the animal’s body weight, a calculated volume of compound 8 stock solution was accurately pipetted onto a cubic piece (approx. 50 mg) of sterilized toast (Ölz multigrain toast, Rudolf Ölz Meisterbäcker GmbH & Co KG, Austria), and left to dry at room temperature for 5 min. Subsequently, 25 μL of 50% sucrose in distilled water were added at the same site to mask the bitter taste of compound 8. These dosage units were prepared twice a week during the study and stored in a closed glass petri dish at room temperature until use. […] Compound 8 was administered in this way for 27 days, eliminating the need for repeated handling and injection. The animals were observed daily for general activity level, hair coat quality or other abnormal behavior or clinical signs.
24 h after the last dose was administered, the mice were humanly euthanized under isoflurane inhalation anesthesia (Isoflurin®, VetPharma, Spain) and the blood was withdrawn from the left ventricle using a syringe, collected in a microtube (Eppendorf, Safe-Lock tube, 0.5 mL, Eppendorf AG, Germany) and allowed to clot. After approximately 1 h, the blood was centrifuged at 6000 × g for 15 min at 4 °C to obtain the sera, which were stored at –80 °C until analysis. […] Animal sera (5–10 μL) were diluted in 0.5 mmol/L DTNB in 0.1 mol/L sodium phosphate buffer pH 7.4 (total volume 1000 μL), substrate (5 μL of 100 mmol/L, final concentration 0.5 mmol/L) was added, and the increase in absorbance monitored for 3 min. BChE activity was determined using butyrylthiocholine iodide, while AChE activity was determined on isoOMPA-inhibited sera (buffer-diluted sera were preincubated for 25 min with 1 μL of 100 mmol/L isoOMPA–0.1 mmol/L final concentration) using acetylthiocholine iodide (final concentration 0.5 mmol/L). Measurements were performed in triplicate and pairwise compared before and after treatment for each subject (n = 5 per group).

T1 sequence (Q03311 30-603): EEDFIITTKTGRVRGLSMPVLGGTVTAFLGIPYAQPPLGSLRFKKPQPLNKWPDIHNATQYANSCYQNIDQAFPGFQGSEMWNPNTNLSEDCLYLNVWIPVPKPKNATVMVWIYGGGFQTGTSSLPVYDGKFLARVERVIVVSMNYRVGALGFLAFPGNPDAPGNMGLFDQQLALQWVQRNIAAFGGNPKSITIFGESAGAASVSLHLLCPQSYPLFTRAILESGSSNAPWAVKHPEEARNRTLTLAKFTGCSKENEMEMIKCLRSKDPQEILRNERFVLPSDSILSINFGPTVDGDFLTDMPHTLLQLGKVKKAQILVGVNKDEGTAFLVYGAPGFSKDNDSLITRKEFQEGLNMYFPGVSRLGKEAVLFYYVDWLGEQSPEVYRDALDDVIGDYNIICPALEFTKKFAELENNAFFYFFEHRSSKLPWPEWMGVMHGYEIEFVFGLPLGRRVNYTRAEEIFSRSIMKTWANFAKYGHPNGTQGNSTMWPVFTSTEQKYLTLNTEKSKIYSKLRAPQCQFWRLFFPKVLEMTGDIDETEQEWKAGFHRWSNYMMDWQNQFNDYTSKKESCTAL

`CCN(CC)C(=O)n1cnc(C2(CC)Cc3ccccc3C2)c1` [Compound 8, N,N-Diethyl-4-(2-ethylindan-2-yl)-1H-imidazole-1-carboxamide]: the “BChE residual activity, AVERAGE” value runs as follows: (1 mg/kg p.o. once a day for 4 weeks, compared to before treatment, 1 mg/kg) 21%±6%; (5 mg/kg p.o. once a day for 4 weeks, compared to before treatment, 5 mg/kg) 10%±5%. Further, the “BChE activity AFTER treatment” value runs as follows: (1 mg/kg p.o. once a day, individual animals, 1 mg/kg) 0.2139±0.0118 U/mL and 0.1602±0.0041 U/mL and 0.1484±0.0071 U/mL and 0.2261±0.0071 U/mL and 0.2214±0.0082 U/mL; (5 mg/kg p.o. once a day, individual animals, 5 mg/kg) 0.1060±0.0071 U/mL and 0.0989±0.0071 U/mL and 0.0801±0.0268 U/mL and 0.0683±0.0108 U/mL and 0.0919±0.0000 U/mL. Moreover, the BChE residual activity was 27.0%±4.2% and 15.9%±1.1% and 19.4%±1.8% and 20.1%±2.4% (1 mg/kg p.o. once a day, individual animals, after vs before treatment, 1 mg/kg); 10.6%±1.7% and 6.9%±2.9% and 12.1%±2.7% and 10.8%±2.1% (5 mg/kg p.o. once a day, individual animals, after vs before treatment, 5 mg/kg). Moreover, the remaining activity at 1 mg/kg (1 mg/kg p.o. once a day for 4 weeks, compared to before treatment, read-out: BChE residual activity, AVERAGE) was found to be 20.6% and the remaining activity at 1 mg/kg (1 mg/kg p.o. once a day, individual animals, after vs before treatment, read-out: BChE residual activity) was 20.3%. Also, the remaining activity at 5 mg/kg (5 mg/kg p.o. once a day for 4 weeks, compared to before treatment, read-out: BChE residual activity, AVERAGE) came to 10.1% and the remaining activity at 5 mg/kg (5 mg/kg p.o. once a day, individual animals, after vs before treatment, read-out: BChE residual activity) is 10.1%.
